# Experimental data as given in ChEMBL document CHEMBL6074620, “Discovery of a triphenylamine-based ligand that targets mitochondrial DNA G-quadruplexes and activates the cGAS-STING immunomodulatory pathway” (Eur J Med Chem, 2024).
# pIC50: −log10 of the molar value. Active and inactive are the calls of the source. No cut-off for these calls is given here.
# Tests used:
# [1] = Toxicity in female BALB/c mouse implanted with mouse 4T1 cells assessed as change in body weight at 2.5 mg/kg, iv administered every 3 days for 2 weeks from day 7; type: organism-based; settings: in vivo, 336 h
# 4T1 [2] = assay: Induction of mitochondrial damage in mouse 4T1 cells assessed as disappearance of picogreen incubated for 1 hrs and measured after 24 hrs by immunofluorescence analysis; type: functional, cell-based; settings: time 25.0 hrs
# 4T1 [3] = assay: Activation of cGAS-STING pathway in mouse 4T1 cells assessed as increase in cGAS expression level by Western blot analysis; type: cell-based; settings: filed as activator, dose <= 5.0 µM
# Mus musculus [4] = assay: Immunostimulatory activity in female BALB/c mouse implanted with mouse 4T1 cells assessed as increase in CD8+ T cells in spleen 2.5 mg/kg, iv by flow cytometry; type: functional, organism-based
# Mus musculus [5] = assay: In-vivo activation of cGAS-STING signaling pathway in female BALB/c mouse assessed as increase in IFN-beta level at 2.5 mg/kg, sc by ELISA analysis; type: functional, organism-based
# 4T1 [6] = assay: Induction of ROS generation in mouse 4T1 cells assessed as increase 8-OG level in presence of 8-oxoguanine by DAPI staining based immunofluorescence based analysis; type: functional, cell-based
# Mus musculus [7] = assay: Immunostimulatory activity in female BALB/c mouse implanted with mouse 4T1 cells assessed as change in CD8+ T cells in spleen at 2.5 mg/kg, sc by flow cytometry; type: functional, organism-based
# 4T1 [8] = assay: Induction of mitochondrial damage in mouse 4T1 cells assessed as increase in CytB level by qPCR analysis; type: functional, cell-based
# 4T1 [9] = assay: Antitumor activity against mouse 4T1 cells implanted with female BALB/c mouse assessed as decrease tumor volume at 2.5 mg/kg, sc administered for every 3 days for 2 weeks from day 7; type: functional, organism-based
# 4T1 [10] = assay: Induction of mitochondrial damage in mouse 4T1 cells assessed as decrease in ND4 level at 5 uM in presence of NAC by qPCR analysis; type: functional, cell-based
# 4T1 [11] = assay: Induction of mouse 4T1 cell maturation assessed as increase in CD80 positive cells by flow cytometric analysis; type: functional, cell-based; settings: dose <= 5.0 µM
# 4T1 [12] = assay: Activation of cGAS-STING signaling pathway in mouse 4T1 cells assessed as increase in IL-6 level at 5 uM by qPCR analysis; type: cell-based; settings: filed as activator
# 4T1 [13] = assay: Induction of mitochondrial damage in mouse 4T1 cells assessed as decrease in ND4 level at 5 uM in presence of DDC by qPCR analysis; type: functional, cell-based
# MDA-MB-231 = assay: Cytotoxicity against human MDA-MB-231 cells assessed as reduction in cell viability incubated for 24 hrs by CCK-8 assay; type: functional, cell-based; settings: MDA-MB-231, 24 h
# 4T1 [14] = assay: Induction of ROS generation in mouse 4T1 cells assessed as increase ROS level by DCFH-DA staining based analysis; type: functional, cell-based
# 4T1 [15] = assay: Activation of cGAS-STING signaling pathway in mouse 4T1 cells assessed as increase in IFN-beta level at 5 uM by qPCR analysis; type: cell-based; settings: filed as activator
# 4T1 [16] = assay: Induction of apoptosis in mouse 4T1 cells assessed as decrease in caspase-3 level at 5 uM by Western blotting analysis; type: functional, cell-based
# Quadruplex DNA [17] = assay: Binding affinity to G4-quadruplex mt6363 DNA (unknown origin) at 10 uM by fluorescence based analysis; type: nucleic-acid assay
# 4T1 [18] = assay: Inhibition of colony formation in mouse 4T1 cells assessed as decrease in number of colonies measured after 10 days of treatment by […]; type: functional, cell-based; settings: dose <= 2.0 µM, time 10.0 day
# 4T1 [19] = assay: Induction of ROS generation in mouse 4T1 cells assessed as increase green fluorescence by DCFH-DA staining based analysis; type: functional, cell-based
# 4T1 [20] = assay: Activation of cGAS-STING signaling pathway in mouse 4T1 cells assessed as increase in ISG54 level at 5 uM by qPCR analysis; type: cell-based; settings: filed as activator
# 4T1 [21] = assay: Inhibition of tumor metastasis in mouse 4T1 cells assessed as reduction in wound healing after 24 hrs; type: functional, cell-based
# Mus musculus [22] = assay: In-vivo activation of cGAS-STING signaling pathway in female BALB/c mouse assessed as increase in IL-6 level at 2.5 mg/kg, sc by ELISA analysis; type: functional, organism-based
# [23] = Drug localization in mitochondria of mouse 4T1 cells assessed as signal colocalization incubated for 30 mins by MitoTracker Green staining based analysis; type: ADME; settings: 4t1, 0.5 h
# 4T1 [24] = assay: Induction of mitochondrial damage in mouse 4T1 cells assessed as decrease in Dloop2 level at 5 uM in presence of DDC by qPCR analysis; type: functional, cell-based
# Mus musculus [25] = assay: Immunostimulatory activity in female BALB/c mouse implanted with mouse 4T1 cells assessed as change in CD4+ T cells in spleen 2.5 mg/kg, sc by flow cytometry; type: functional, organism-based
# 4T1 [26] = assay: Activation of cGAS-STING pathway in mouse 4T1 cells assessed as […] in STING phosphorylation up to 5 uM by Western blot analysis; type: cell-based; settings: filed as activator
# [27] = Toxicity in female BALB/c mouse implanted with mouse 4T1 cells assessed as change in kidney weight at 2.5 mg/kg, sc measured after 21 days by Hematoxylin-Eosin staining based analysis; type: organism-based; settings: in vivo, 504 h, time 21 day
# [28] = Toxicity in female BALB/c mouse implanted with mouse 4T1 cells assessed as change in lungs weight at 2.5 mg/kg, sc measured after 21 days by Hematoxylin-Eosin staining based analysis; type: organism-based; settings: in vivo, 504 h, time 21 day
# Quadruplex DNA [29] = assay: Binding affinity to G4-quadruplex mt6363 DNA (unknown origin) assessed as melting temperature at 10 uM incubated for 2 hrs by fluorescence based analysis; type: nucleic-acid assay
# [30] = Toxicity in female BALB/c mouse implanted with mouse 4T1 cells assessed as change in liver weight at 2.5 mg/kg, sc measured after 21 days by Hematoxylin-Eosin staining based analysis; type: organism-based; settings: in vivo, 504 h, time 21 day
# [31] = Toxicity in female BALB/c mouse implanted with mouse 4T1 cells assessed as change in heart weight at 2.5 mg/kg, sc measured after 21 days by Hematoxylin-Eosin staining based analysis; type: organism-based; settings: in vivo, 504 h, time 21 day
# 4T1 [32] = assay: Induction of mitochondrial damage in mouse 4T1 cells assessed as increase in ND4 level by qPCR analysis; type: functional, cell-based
# Mus musculus [33] = assay: Immunostimulatory activity in female BALB/c mouse implanted with mouse 4T1 cells assessed as increase in number of activated CD8+ T cells in spleen 2.5 mg/kg, sc by flow cytometry; type: functional, organism-based
# 4T1 [34] = assay: Induction of mitochondrial damage in mouse 4T1 cells assessed as dispersion of fluorescence Mitotracker red incubated for 1 hrs and measured after 24 hrs by immunofluorescence analysis; type: functional, cell-based; settings: time 25.0 hrs
# 4T1 [35] = assay: Activation of cGAS-STING signaling pathway in mouse 4T1 cells assessed as increase in IFN-beta level up to 5 uM by ELISA analysis; type: cell-based; settings: filed as activator
# Mus musculus [36] = assay: In-vivo activation of cGAS-STING signaling pathway in female BALB/c mouse assessed as increase in TNF-alpha level at 2.5 mg/kg, sc by ELISA analysis; type: functional, organism-based
# 4T1 [37] = assay: Induction of mitochondrial damage in mouse 4T1 cells assessed as decrease in Dloop2 level at 5 uM in presence of NAC by qPCR analysis; type: functional, cell-based
# [38] = Toxicity in female BALB/c mouse implanted with mouse 4T1 cells assessed as body weight loss at 2.5 mg/kg, sc measured every other day for 21 days; type: organism-based; settings: in vivo, 504 h, time 21 day
smiles,measurement,setting,value
COc1ccc(N(c2ccc(/C=C/C3=[N+](C)c4ccc5ccccc5c4C3(C)C)cc2)c2ccc(OC)cc2)cc1.[I-],Activity,[1],Non-toxic
same,Activity,4T1 [2],Active
same,Activity,4T1 [3],Dose-dependent-effect
same,Activity,Mus musculus [4],Active
same,Activity,Mus musculus [5],Active
same,Activity,4T1 [6],Active
same,Activity,Mus musculus [7],Active
same,Activity,4T1 [8],Active
same,Activity,4T1 [9],Active
same,Activity,4T1 [10],Active
same,Activity,4T1 [11],Dose-dependent-effect
same,Activity,4T1 [12],Active
same,Activity,4T1 [13],Active
same,pIC50,MDA-MB-231,5.74
same,Activity,4T1 [14],Active
same,Activity,4T1 [15],Active
same,Activity,4T1 [16],Active
same,Activity,Quadruplex DNA [17],Active
same,Activity,4T1 [18],Dose-dependent-effect
same,Activity,4T1 [19],Dose-dependent-effect
same,Activity,4T1 [20],Active
same,Activity,4T1 [21],Active
same,Activity,Mus musculus [22],Active
same,Drug uptake,[23],Active
same,Activity,4T1 [24],Active
same,Activity,Mus musculus [25],Active
same,Activity,4T1 [26],Active
same,Activity,[27],Non-toxic
same,Activity,[28],Non-toxic
same,Tm,Quadruplex DNA [29],46.2 °C
same,Activity,[30],Non-toxic
same,Activity,[31],Non-toxic
same,Activity,4T1 [32],Active
same,Activity,Mus musculus [33],Active
same,Activity,4T1 [34],Active
same,Activity,4T1 [35],Active
same,Activity,Mus musculus [36],Active
same,Activity,4T1 [37],Active
same,Activity,[38],Non-toxic
